Data published in the supplement of paper PMC10307832.

Assays:
Assay in all cases: relative viability (nuclei count vs DMSO), 5 days (fraction); higher = more cells survive
AT9283 + Alpelisib = compound: O=C(Nc1c[nH]nc1-c1nc2ccc(CN3CCOCC3)cc2[nH]1)NC1CC1 [AT9283] + Cc1nc(NC(=O)N2CCC[C@H]2C(N)=O)sc1-c1ccnc(C(C)(C)C(F)(F)F)c1 [Alpelisib] (partner 2 µM)
Outline: (§1)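 Lung cancer cell lines in 1536-well plates got either a single drug or a fixed anchor-drug dose together with five library-drug doses (not always all listed) in √10 steps, by pin tool, on the day after seeding. Nuclei were counted after 5 days, and relative viability is the treated-to-vehicle ratio of nuclei counts. Values are medians of duplicate plates.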

AT9283 + Foretinib = compound: O=C(Nc1c[nH]nc1-c1nc2ccc(CN3CCOCC3)cc2[nH]1)NC1CC1 [AT9283] + COc1cc2c(Oc3ccc(NC(=O)C4(C(=O)Nc5ccc(F)cc5)CC4)cc3F)ccnc2cc1OCCCN1CCOCC1 [Foretinib] (partner 0.25 µM)
Outline: as §1

AT9283 + Dasatinib = compound: O=C(Nc1c[nH]nc1-c1nc2ccc(CN3CCOCC3)cc2[nH]1)NC1CC1 [AT9283] + Cc1nc(Nc2ncc(C(=O)Nc3c(C)cccc3Cl)s2)cc(N2CCN(CCO)CC2)n1 [Dasatinib] (partner 0.075 µM)
Outline: as §1

Erlotinib + OSI-027 = compound: C#Cc1cccc(Nc2ncnc3cc(OCCOC)c(OCCOC)cc23)c1 [Erlotinib] + COc1cccc2cc(-c3nc([C@H]4CC[C@H](C(=O)O)CC4)n4ncnc(N)c34)[nH]c12 [OSI-027] (partner 0.5 µM)
Outline: as §1

Erlotinib + Pemetrexed = compound: C#Cc1cccc(Nc2ncnc3cc(OCCOC)c(OCCOC)cc23)c1 [Erlotinib] + Nc1nc2[nH]cc(CCc3ccc(C(=O)N[C@@H](CCC(=O)O)C(=O)O)cc3)c2c(=O)[nH]1 [Pemetrexed] (partner 0.2 µM)
Outline: as §1

Row | Cell Line | relative viability (AT9283 + Alpelisib; first compound 0.003 µM) | relative viability (AT9283 + Alpelisib; first compound 0.03 µM) | relative viability (AT9283 + Alpelisib; first compound 0.09487 µM) | relative viability (AT9283 + Alpelisib; first compound 0.3 µM) | relative viability (AT9283 + Foretinib; first compound 0.003 µM) | relative viability (AT9283 + Foretinib; first compound 0.03 µM) | relative viability (AT9283 + Foretinib; first compound 0.09487 µM) | relative viability (AT9283 + Foretinib; first compound 0.3 µM) | relative viability (AT9283 + Dasatinib; first compound 0.003 µM) | relative viability (AT9283 + Dasatinib; first compound 0.03 µM) | relative viability (AT9283 + Dasatinib; first compound 0.09487 µM) | relative viability (AT9283 + Dasatinib; first compound 0.3 µM) | relative viability (Erlotinib + OSI-027; first compound 0.02 µM) | relative viability (Erlotinib + OSI-027; first compound 0.2 µM) | relative viability (Erlotinib + OSI-027; first compound 0.6325 µM) | relative viability (Erlotinib + OSI-027; first compound 2 µM) | relative viability (Erlotinib + Pemetrexed; first compound 0.02 µM) | relative viability (Erlotinib + Pemetrexed; first compound 0.2 µM) | relative viability (Erlotinib + Pemetrexed; first compound 0.6325 µM) | relative viability (Erlotinib + Pemetrexed; first compound 2 µM)
1 | NCI-H1563 | 1.08 | 0.81 | 0.732 | 0.628 | 0.906 | 0.765 | 0.708 | 0.633 | 0.444 | 0.444 | 0.42 | 0.327 | 0.768 | 0.867 | 0.801 | 0.663 | 0.659 | 0.83 | 0.92 | 
2 | HCC-366 | 0.48 | 0.17 | 0.122 | 0.0346 | 0.962 | 0.881 | 0.0841 | 0.0697 | 0.619 | 0.566 | 0.104 | 0.053 | 0.969 | 0.805 | 0.468 | 0.438 | 0.176 | 0.197 | 0.127 | 0.136
3 | SW 1573 | 0.766 | 0.441 | 0.226 | 0.249 | 0.621 | 0.423 | 0.239 | 0.233 | 0.496 | 0.115 | 0.0919 | 0.0873 | 0.651 | 0.503 | 0.597 | 0.44 | 0.886 | 0.746 | 0.865 | 0.805
4 | LOU-NH91 | 0.695 | 0.684 | 0.531 | 0.427 | 0.913 | 0.887 | 0.548 | 0.375 | 0.524 | 0.562 | 0.366 | 0.296 | 0.506 | 0.47 | 0.473 | 0.43 | 0.448 | 0.393 | 0.414 | 0.371
5 | NCI-H1299 | 1.08 | 1.04 | 0.476 | 0.352 | 1.13 | 0.541 | 0.415 | 0.373 |  |  |  |  |  |  |  |  |  |  |  | 
6 | HCC-44 | 0.784 | 0.795 | 0.2 | 0.116 |  |  |  |  |  |  |  |  | 0.505 | 0.571 | 0.412 | 0.435 | 0.682 | 0.724 | 0.662 | 0.639
7 | NCI-H1437 | 0.997 | 0.88 | 0.571 | 0.155 | 1.33 | 0.974 | 0.533 | 0.323 | 0.342 | 0.379 | 0.224 | 0.114 | 0.856 | 0.919 | 0.832 | 0.716 | 0.33 | 0.33 | 0.395 | 0.27
8 | H3255 | 0.652 | 0.68 | 0.443 | 0.178 | 0.924 | 0.794 | 0.734 | 0.183 | 0.323 | 0.316 | 0.331 | 0.235 | 0.638 | 0.345 | 0.207 | 0.202 | 0.528 | 0.387 | 0.383 | 0.233
9 | Calu-6 | 0.986 | 0.23 | 0.26 | 0.246 | 0.728 | 0.203 | 0.214 | 0.24 |  |  |  |  |  |  |  |  |  |  |  | 
10 | NCI-H2085 | 0.946 | 0.894 | 0.615 | 0.411 | 1.1 | 0.736 | 0.51 | 0.338 | 0.231 | 0.238 | 0.224 | 0.2 | 0.787 | 0.448 | 0.349 | 0.245 | 0.867 | 0.695 | 0.716 | 0.474
